Measured values reported in patent US9108969B2, “Substituted tricyclic acid derivatives as S1P1 receptor agonists useful in the treatment of autoimmune and inflammatory disorders” (Arena Pharmaceuticals, Inc., priority 2008, dated 2015).
Each block holds one molecule with its values, some of them ahead of it.

What was measured:
[1] = system: peripheral blood lymphocyte (PBL) count; experiment: Mouse peripheral lymphocyte lowering (PLL) assay; type: in vivo, Male BALB/c mice; conditions: oral dose, 5 hours post-dose, FIG. 11
Description: Animals: Male BALB/c mice (Charles River Laboratories, Wilmington, Mass.) were housed four per cage and maintained in a humidity-controlled (40 to 60%) and temperature-controlled (68 to 72° F.) facility on a 12 h:12 h light/dark cycle (lights on at 6:30 am) with free access to food (Harlan Teklad, Orange, Calif., Rodent Diet 8604) and water. Mice were allowed one week of habituation to the animal facility before testing.
PLL Assay: Mice were given an oral dose of Compound 2 or dosing vehicle (0.5% methylcellulose) in a total volume of 10 mL/kg. Peripheral blood samples were collected at 5 hours post-dose. The mice were anesthetized with isoflurane and blood was collected via cardiac puncture. A complete cell count (CBC), including lymphocyte count, was obtained using a CELL-DYN® 3700 (Abbott Laboratories, Abbott Park, Ill.) instrument. Results are presented in FIG. 11, in which peripheral blood lymphocyte (PBL) count is shown for the 5 hour group.

human S1P1 receptor = target: T1, human S1P1 receptor (Homo sapiens, UniProt P21453); experiment: HTRF assay for direct cAMP measurement (S1P1 agonism); type: cell-based; conditions: recombinant CHO-K1 cells stably transfected with S1P1; decrease of cAMP
T1 construct: expressed in transfected cells; host or cells: CHO-K1 (ATCC CCL-61), stably transfected
T1 sequence (P21453 whole entry): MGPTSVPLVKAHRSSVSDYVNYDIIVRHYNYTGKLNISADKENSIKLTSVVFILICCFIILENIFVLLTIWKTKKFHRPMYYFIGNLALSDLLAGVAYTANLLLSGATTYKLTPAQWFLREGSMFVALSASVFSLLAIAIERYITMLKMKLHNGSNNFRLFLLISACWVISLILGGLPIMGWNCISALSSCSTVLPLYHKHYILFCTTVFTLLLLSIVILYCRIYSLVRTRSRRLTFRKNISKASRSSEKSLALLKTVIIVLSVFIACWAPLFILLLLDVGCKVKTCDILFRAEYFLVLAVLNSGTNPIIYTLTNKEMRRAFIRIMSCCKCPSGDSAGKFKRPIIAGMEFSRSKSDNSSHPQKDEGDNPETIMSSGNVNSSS
Source text: Compounds were screened for agonists of the S1P1 receptor (e.g., human S1P1 receptor) using the HTRF® assay for direct cAMP measurement (Gabriel et al., Assay and Drug Development Technologies, 1:291-303, 2003) and recombinant CHO-K1 cells stably transfected with S1P1. CHO-K1 cells were obtained from ATCC® (Manassas, Va.; Catalog #CCL-61). An agonist of the S1P1 receptor was detected in the HTRF® assay for direct cAMP measurement as a compound which decreased cAMP concentration. HTRF® assay also was used to determine EC50 values for S1P1 receptor agonists.
Principle of the Assay:HTRF® assay kit was purchased from Cisbio-US, Inc. (Bedford, Mass.; Catalog #62AM4PEC). The HTRF® assay supported by the kit is a competitive immunoassay between endogenous cAMP produced by the CHO-K 1 cells and tracer cAMP labeled with the dye d2. The tracer binding is visualized by a monoclonal anti-cAMP antibody labeled with Cryptate. The specific signal (i.e., fluorescence resonance energy transfer, FRET) is inversely proportional to the concentration of unlabeled cAMP in the standard or sample.
Standard Curve:The fluorescence ratio (665 nm/620 nm) of the standards (0.17 to 712 nM cAMP) included in the assay was calculated and used to generate a cAMP standard curve according to the kit manufacturer's instructions. The fluorescence ratio of the samples (test compound or compound buffer) was calculated and used to deduce respective cAMP concentrations by reference to the cAMP standard curve.
Setup of the Assay: The HTRF® assay was carried out using a two-step protocol essentially according to the kit manufacturer's instructions, in 20 μL total volume per well in 384-well plate format (ProxiPlates; PerkinElmer, Fremont, Calif.; catalog #6008280). To each of the experimental wells was transferred 1500 recombinant CHO-K1 cells in 5 μL phosphate buffered saline containing calcium chloride and magnesium chloride (PBS+; Invitrogen, Carlsbad, Calif.; catalog #14040) supplemented with IBMX (250 μM) and rolipram (20 μM) (phosphodiesterase inhibitors; Sigma-Aldrich, St. Louis, Mo.; catalog #15879 and catalog #R6520, respectively), followed by test compound in 5 μL compound buffer (PBS+ supplemented with […] (water-soluble forskolin derivative; SignaGen Laboratories, Gaithersburg, Md.; catalog #PKI-NKH477-010)) or 5 μL compound buffer. The plate was then incubated at room temperature for 1 h. To each well was then added 5 μL cAMP-d2 conjugate in lysis buffer and 5 μL Cryptate conjugate in lysis buffer according to the kit manufacturer's instructions. The plate was then further incubated at room temperature for 1 hour, after which the assay plate was read.
Assay Readout: HTRF® readout was accomplished using a PHERAstar (BMG LABTECH Inc., Durham, N.C.) or EnVision™ (PerkinElmer, Fremont Calif.) microplate reader.

[2] = system: collagen-induced arthritis; experiment: Collagen-induced arthritis assay; type: in vivo, Female Lewis rats; conditions: rat, 0.3, 1 and 3 mg/kg p.o. q.d. day 0 through day 16, FIG. 14
Description: Female Lewis rats were used in this study. Acclimated animals were anesthetized with isoflurane and given the first collagen injection (day 0). On day 6, they were anesthetized again for the second collagen injection. Collagen was prepared by making a 4 mg/mL solution in 0.01 N acetic acid. Equal volumes of collagen and incomplete Freund's adjuvant were emulsified by hand mixing until a bead of this material held its form when placed in water. Each animal received 300 μL of the mixture each time, spread over 3 subcutaneous sites on the back.
Treatment (p.o., q.d., 5 mL/kg dosing volume) began on day 0 and continued through day 16 with vehicle or compounds given at 24 h intervals. Rats were weighed on days 0, 3, 6 and 9 through 17 and caliper measurements of the ankles taken on days 9 through 17.
The second enantiomer isolated after resolution of compound 12 by HPLC (retention time: 18 min per the conditions reported in Example 1.3), was dosed at 0.3, 1 and 3 mg/kg.

[3] = system: peripheral blood lymphocyte (PBL) count; experiment: Rat peripheral lymphocyte lowering (PLL) assay; type: in vivo, Male Sprague-Dawley rats; conditions: 1 mg/kg intravenous dose, 5 h post-dose, FIG. 12 and 13
Description: Animals: Male Sprague-Dawley rats (Charles River Laboratories, Hollister, Calif.) were housed and maintained in humidity (40 to 60%) and temperature (68 to 72° F.) controlled facility on a 12 h:12 h light/dark cycle (lights on at 6:30 am) with free access to food (Harlan Teklad, Orange, Calif., Rodent Diet 8604) and water. Rats were allowed (approximately) one week of habituation to the animal facility before testing.
PLL Assay: Rats were given a 1 mg/kg intravenous dose of the first enantiomer isolated after resolution of compound 12 by HPLC (retention time: 15 min per the conditions reported in Example 1.3), or dosing vehicle (40% hydroxypropyl-cyclodextrin (HPCD)) in a total volume of 1 mL/kg. Peripheral blood samples were collected at 5 h post-dose. Blood was collected via indwelling catheter. A complete cell count (CBC), including lymphocyte count, was obtained using a CELL-DYN® 3700 (Abbott Laboratories, Abbott Park, Ill.) instrument. Results are presented in FIG. 12, in which peripheral blood lymphocyte (PBL) count is shown for the 5 hour group.
Similarly, rats were given a 1 mg/kg intravenous dose of the second enantiomer isolated after resolution of compound 12 by HPLC (retention time: 18 min per the conditions reported in Example 1.3), or dosing vehicle (40% hydroxypropyl-cyclodextrin (HPCD)) in a total volume of 1 mL/kg. […]

[4] = system: spared nerve injury model; conditions: cited from earlier work
[5] = system: VEGF-induced vascular permeability; conditions: mice, oral administration; cited from earlier work
[6] = system: ovariectomy-induced osteoporosis; conditions: mice; cited from earlier work
multiple sclerosis = conditions: patients with multiple sclerosis, Phase II; cited from earlier work
[7] = system: experimental autoimmune myasthenia gravis (EAMG); conditions: prophylactic oral administration, 1 mg/kg, three times a week, C57BL/6 mice; cited from earlier work
peripheral lymphocytes = conditions: Hale et al. 2004; cited from earlier work
[8] = system: experimental autoimmune uveoretinitis; conditions: short-term high dose; cited from earlier work
[9] = attributed to agonism of the S1P3 receptor; cited from earlier work
[10] = system: contact hypersensitivity (CHS); conditions: murine; cited from earlier work

SMILES: N#Cc1cc(COc2ccc3c(c2)cc2n3CCC2CC(=O)O)cc(OC(F)(F)F)c1 (centres unmarked) [Compound 2, 2-(7-(3-cyano-5-(trifluoromethoxy)benzyloxy)-2,3-dihydro-1H-pyrrolo[1,2-a]indol-1-yl)acetic acid]
peripheral blood lymphocyte (PBL) lowering compared to vehicle [1]: exhibited activity for inducing PBL lowering (lymphopenia)

SMILES: O=C(O)CC1CCn2c1cc1cc(OCc3ccc(C4CCCC4)c(C(F)(F)F)c3)ccc12 (stereo not drawn) [second enantiomer isolated after resolution of compound 12 by HPLC, 2-(7-(4-cyclopentyl-3-(trifluoromethyl)benzyloxy)-2,3-dihydro-1H-pyrrolo[1,2-a]indol-1-yl)acetic acid]
reduction of mean ankle diameter compared to vehicle [2]: exhibited activity for reducing mean ankle diameter

SMILES: O=C(O)CC1CCn2c1cc1cc(OCc3ccc(C4CCCC4)c(C(F)(F)F)c3)ccc12 (stereo not drawn) [first enantiomer isolated after resolution of compound 12 by HPLC, 2-(7-(4-cyclopentyl-3-(trifluoromethyl)benzyloxy)-2,3-dihydro-1H-pyrrolo[1,2-a]indol-1-yl)acetic acid]
peripheral blood lymphocyte (PBL) lowering compared to vehicle [3]: exhibited activity for inducing PBL lowering (lymphopenia)

SMILES: CCCCCCCCc1ccc(CCC(N)(CO)CO)cc1 [FTY720]
nociceptive behavior [4]: reduce the nociceptive behavior | VEGF-induced vascular permeability [5]: potently blocked VEGF-induced vascular permeability | ovariectomy-induced osteoporosis [6]: relieved ovariectomy-induced osteoporosis | MRI lesions and clinical disease activity (multiple sclerosis): reduce the number of lesions detected by magnetic resonance imaging (MRI) and clinical disease activity | development of EAMG [7]: completely prevented the development of experimental autoimmune myasthenia gravis | induction of lymphopenia (peripheral lymphocyte lowering) (peripheral lymphocytes): rapidly and reversibly induce lymphopenia | ocular infiltrates [8]: rapidly reduced ocular infiltrates | adverse event in clinical trials [9]: transient asymptomatic bradycardia | initiation of contact hypersensitivity [10]: impair initiation of murine contact hypersensitivity

Further lines, results first:

EC50 (human S1P1 receptor): 0.011 nM
SMILES: O=C(O)CC1CCn2c1c(I)c1cc(OCc3ccc(C4CCCC4)c(C(F)(F)F)c3)ccc12 (centres unmarked) [Compound 10, 2-(7-(4-cyclopentyl-3-(trifluoromethyl)benzyloxy)-9-iodo-2,3-dihydro-1H-pyrrolo[1,2-a]indol-1-yl)acetic acid]

EC50 (human S1P1 receptor): 5.2 nM
SMILES: O=C(O)CC1CCn2c1c(C1CCC1)c1cc(OCc3ccc(C4CCCC4)c(C(F)(F)F)c3)ccc12 (centres unmarked) [Compound 11, 2-(9-cyclobutyl-7-(4-cyclopentyl-3-(trifluoromethyl)benzyloxy)-2,3-dihydro-1H-pyrrolo[1,2-a]indol-1-yl)acetic acid]

EC50 (human S1P1 receptor): 6.3 nM
SMILES: O=C(O)CC1CCn2c1nc1cc(OCc3ccc(C4CCCC4)c(C(F)(F)F)c3)ccc12 (centres unmarked) [Compound 14, 2-(6-(4-cyclopentyl-3-(trifluoromethyl)benzyloxy)-2,3-dihydro-1H-benzo[d]pyrrolo[1,2-a]imidazol-3-yl)acetic acid]

EC50 (human S1P1 receptor): 0.239 nM
SMILES: CC(C)Oc1ccc(COc2ccc3c(c2)cc2n3CCC2CC(=O)O)cc1C#N (centres unmarked) [Compound 6, 2-(7-(3-cyano-4-isopropoxybenzyloxy)-2,3-dihydro-1H-pyrrolo[1,2-a]indol-1-yl)acetic acid]

EC50 (human S1P1 receptor): 0.321 nM
SMILES: CC(C)Cc1ccc(COc2ccc3c(c2)cc2n3CCC2CC(=O)O)cc1C(F)(F)F (centres unmarked) [Compound 4, 2-(7-(4-isobutyl-3-(trifluoromethyl)benzyloxy)-2,3-dihydro-1H-pyrrolo[1,2-a]indol-1-yl)acetic acid]
